Experiments:
[1] = test system: nitrification of urine/urea-N in soil; assay: Soil incubation with urine from abomasally infused sheep: nitrification; conditions: urine from sheep with abomasal infusion, DCD 15 g/day or 4 MP 1 g/day; soil incubated at 20° C.
Protocol: (§1) This was determined by firstly measuring the urea concentration in urine samples and adjusting the urine volume (or in a few samples with low concentrations, urea was added) so that the same rate of urea-N was added to soil (100 g) in plastic bags. The soil was a Horotiu silt loam derived from volcanic ash taken from a pastoral site which had been ungrazed for over 6 months so that no residual animal urine was present.
(§2) The urine-treated soil samples were incubated at 20° C. and sub-samples were removed at regular intervals over time for analysis of ammonium and nitrate in 2M KCl extracts using standard methods. The level of inhibition of nitrification was evident from less nitrate formation (FIG. 4B; P<0.001 at all incubation times) and higher ammonium levels (FIG. 4A; P<0.001 at all incubation times). Inhibition of nitrification was higher for DCD than for 4 MP (P<0.01), with an average reduction in nitrate production relative to the control of 96 and 51%, respectively (FIG. 4C). This difference may have been influenced by the rate of inhibitor used.

[2] = Tolerability of abomasal infusion in sheep; assay type: in vivo; conditions: DCD 15 g/day, 4 MP 1 g/day, Agrotain 80 g/day
Source text: (§3) Sheep were then transferred indoors to metabolism crates.

nitrous oxide emissions = assay: Lysimeter study: nitrous oxide emission
Source text: (§4) Undisturbed soil lysimeters (30 cm diameter×50 cm depth) were collected from a pastoral site near Lake Taupo which had been under a cutting regime with no grazing animals for over 18 months. The soil was a Taupo sandy loam (yellow brown pumice or allophanic soil). A gap (c. 1 cm) between the side of the soil cores and the PVC lysimeter housing was filled with Vaseline to stop possible edge-flow of water or urine. The lysimeters were transferred to a lysimeter facility (near Hamilton, New Zealand) where they were buried in soil so that the soil surface in the lysimeter was at ground level. However, the lysimeter casing extended about 4 cm above the soil surface to stop any lateral surface loss.
There were five replicate lysimeters with the following treatments included: a control, urine, urine+DCD, and urine+4 MP. Urine was collected from Jersey dairy cows, stored at 4° C. and applied to the lysimeters within 4 days. The urine solution was applied at 10 L/m^2 giving the equivalent of 800 kg N/ha (similar to that for a cow urine patch). For the DCD and 4 MP treatments, the inhibitor compounds were dissolved in the urine prior to application to represent urine excreted from inhibitor-administered animals. Inputs in these treatments were equivalent to 1.5 g DCD/m^2 and 0.1 g 4 MP/m^2.
Lysimeters were left to stabilise for several weeks after installation in the facility. Treatments were applied in May 2004. Pasture on the lysimeters was trimmed prior to treatment application and was regularly cut at heights and intervals similar to that under dairy cow grazing.
Nitrous oxide (N2O) emission from the main lysimeters was measured using a standard closed chamber method. Chambers were placed on the lysimeters at regular intervals during the study for periods of one hour at around midday. Gas samples were collected at 0, 30 and 60 minutes from the headspace of the chambers for N2O analysis by gas chromatography. […] Cumulative N2O emissions over the measurement period averaged 1.2 and 0.5 kg N/ha for the urine and urine+DCD treatments, giving a 57% reduction from DCD.

nitrate leaching = assay: Lysimeter study: nitrate leaching; conditions: inhibitor added to cow urine, 1.5 g DCD/m^2 or 0.1 g 4 MP/m^2; 104 days
Source text: as §4
There were five replicate lysimeters with the following treatments included: a control, urine, urine+DCD, and urine+4 MP. Urine was collected from Jersey dairy cows, stored at 4° C. and applied to the lysimeters within 4 days. The urine solution was applied at 10 L/m^2 giving the equivalent of 800 kg N/ha (similar to that for a cow urine patch). […]
Nitrate leaching from lysimeters was measured by collection of leachate draining from the base of each lysimeter. This drainage water was collected at regular intervals and analysed for nitrate concentration. […]

[3] = DCD in urine of sheep, abomasal infusion (HPLC); assay type: in vivo
Source text: as §3
Infusion of treatments continued for 4 days, after which there was an 11 day non-treatment clearance/rest period before repeating this phase. Sheep allocation to treatments changed over each period in a statistical cross-over design (defined by statisticians) so that 11 sheep had been subjected to each of 3 treatments (control, DCD and 4 MP), and so that within- and between-sheep variability could be evaluated.
Presence of DCD in urine samples was determined using high-performance liquid chromotography. […] There was some variability between sheep in DCD concentrations in urine, but this reflected differences in urination volumes (FIG. 3) so that there was much less difference in the amount of DCD excreted per urination. Concentrations of DCD in urine declined to negligible levels within 7 days after ceasing infusion (FIG. 2).

[4] = DCD in urine of sheep, ruminal infusion (HPLC); assay type: in vivo
Protocol: (§5) The 12 sheep were randomly allocated to one of 2 treatments; water infusion (Control) or DCD at 15 g/day (DCD group). Experimental methodology was the same as for the abomasal infusion study in that there was a 4 day period of continuous infusion followed by an 11 day non-treatment clearance/rest period.
Presence of DCD in urine samples was determined using high-performance liquid chromotography. […] However, concentrations of DCD in urine were lower at day 1 of infusion than days 2-4, as expected because of time for rumen processing. Levels declined after ceasing infusion and were negligible within 7 days (FIG. 5).

[5] = test system: nitrification of urine/urea-N in soil; assay: Soil incubation with urine from ruminally infused sheep: nitrification; conditions: urine from sheep with ruminal infusion of DCD 15 g/day
Protocol: as §1, §2, §5

[6] = Excretion efficiency of DCD in non-lactating dairy cows (metabolism stall study); assay type: in vivo
Protocol: The efficiency of excretion of DCD in urine relative to DCD administered to animals was determined in a metabolism stall study involving five non-lactating dairy cows. The study was conducted on the DairyNZ Lye Farm, near Hamilton, New Zealand.
Each cow was fed a diet of pasture silage.
The five cows were administered DCD via addition to the pasture silage feed at a dosage rate was 30 g/animal/day.
Animal waste collectors were fitted to animals and configured to collect urine and dung separately. The animal waste was analysed for DCD concentration using known analysis techniques.

[7] = test system: nitrification inhibition in soil; assay: Laboratory soil incubation with urine from DCD-treated cows
Protocol: A laboratory incubation experiment was set up to confirm that the DCD contained in urine from DCD-treated cows retained its nitrification inhibition properties after application to soil. Urine from DCD-treated cows was compared to urine from non-treated cows spike with varying rates of DCD.

[8] = DCD in urine of dairy heifers drenched daily; assay type: in vivo; conditions: daily drench
Source text: In addition, in a separate study, dairy heifers were drenched daily with a DCD solution.

[9] = Freezing of urine: presence and activity of inhibitors; assay type: physicochemical; conditions: urine frozen at −20° C.
Source text: During each infusion period the sheep were housed in metabolism crates to allow daily collection of urine and faeces samples. Single urination event samples were also collected from each sheep every day and were frozen for subsequent analysis of inhibitor content and for inhibitory activity in soil.

[10] = Excretion efficiency of DCD in sheep; assay type: in vivo
[11] = test system: conversion of nitrogen containing compounds; conditions: cited from earlier work
[12] = cows, 30 g/animal/day in feed, at equilibrium

## Cc1cn[nH]c1 [4 MP, 4 methylpyrazole]
[1]
  average reduction in nitrate production relative to the control: 51%
[2]
  effect of infusion on sheep (live-weight changes, body condition, general bodily function, feed intake): no adverse effect
Nitrous oxide emissions; inhibitor added to urine, lysimeters
  effect on nitrous oxide emissions: reducing
Nitrate leaching
  reduction in cumulative nitrate leaching versus urine treatment: 71%

## N#CN=C(N)N [DCD, dicyandiamide]
[3]; DCD 15 g/day abomasal infusion, versus control, P<0.001
  DCD concentration in urine during the infusion period: highly significant increase
[3]; abomasal infusion 15 g/day
  time for DCD in urine to decline to negligible levels after ceasing infusion: ≤ 7 days
[1]
  average reduction in nitrate production relative to the control: 96%
[2]
  effect of infusion on sheep (live-weight changes, body condition, general bodily function, feed intake): no adverse effect
[4]; DCD 15 g/day ruminal infusion, 4 days
  DCD excretion in urine over the infusion period: high levels of DCD were absorbed and excreted in urine in an unaltered form
[4]; ruminal infusion 15 g/day
  time for DCD in urine to become negligible after ceasing infusion: ≤ 7 days
[5]
  average reduction in nitrate production: 81%
Nitrous oxide emissions; urine+DCD versus urine
  reduction in cumulative N2O emissions: 57%
Nitrous oxide emissions; urine+DCD, 1.5 g DCD/m^2, urine alone 1.2
  cumulative N2O emissions over the measurement period: 0.5 kg N/ha
Nitrate leaching
  reduction in cumulative nitrate leaching versus urine treatment: 56%
[6]; cattle such as beef or dairy
  efficiency of excretion in urine: 80-81%
[6]; [12]
  DCD administered recovered in dung: 10%
  DCD administered recovered in urine: 81%
[7]; FIG. 11 legend
  DCD in urine from DCD-treated cows, measured rate equivalent: 51 kg DCD/ha
[7]; laboratory incubation
  nitrification inhibition in soil of DCD in urine from treated cows versus urine spiked with an equivalent level of DCD: same level of nitrification inhibition
[8]
  DCD concentration in urine over a 90 day treatment period: remained relatively constant
[9]
  effect of freezing urine on presence or activity: no effect
[10]
  efficiency of transfer to urine: approximately 86%
[11]; DCD rate on land approximately 5 kg/ha
  effectiveness at a rate of approximately 5 kg/ha: relatively ineffective
[11]; application to land, most soils, rainfall below about 1500 mm/year
  improvement at rates in excess of 10 kg/ha compared to 10 kg/ha: negligible improvements
